Results: article PMC11979273, “A phase I study to evaluate the safety, tolerability, and pharmacokinetics of HEC113995PA·H2O, a novel dual-acting serotonergic antidepressant, in healthy subjects” (Frontiers in Pharmacology, 2025)
Read-outs that look alike come from different tables or passages of the source.

Legend:
rats = experiment: Behavioral despair models, rats; format: in vivo; conditions: single, multiple, and chronic administrations, unpublished data
[1] = Food effect study, plasma pharmacokinetics; format: in vivo, human; conditions: for Cmax / MRT / half-life / Vd/F / Tmax: po, 20 mg; for Vd/F: read-out: Vz/F; for Tmax: N = 18, median (min, max)
Source text: A total of 18 healthy subjects of both genders, were assigned randomly to three sequences A, B, and C (n = 6). All subjects received HEC113995PA·H2O tablets, with a total of 3 times administered during the trial, once per cycle, and a washout period of ≥11 days. In sequence A, the order of administration was as follows: fasting, after a standard meal, and after a high-fat meal. In sequence B, the order of administration was after a standard meal, after a high-fat meal, and fasting. Sequence C subjects were administered in the following order: after a high-fat meal, fasting, and after a standard meal. During the fed periods, a single oral dose of HEC113995PA·H2O tablet 20 mg was administered within 30 min after consumption of a standard meal (total calories: approximately 600 kcal), or a high-fat, high-calorie meal (total calories: approximately 800 kcal–1,000 kcal, which derives about 150, 250, and 500–600 kcal from protein, carbohydrate, and fat, respectively). Serial blood samples were collected before and after each cycle for PK determination of plasma concentration and the evaluation of pharmacokinetic characteristics. Safety and tolerability were assessed on days 4 and 28.
In the first dose group of single ascending-dose study, PK blood samples were collected at 0.5 h before administration and 0.5, 1, 1.5, 2, 2.5, 3, 4, 5, 6, 8, 10, 12, 24, 36, 48, and 72 h after administration. In other SAD groups, MAD groups and food effect study, PK blood samples were collected at 0.5 h before administration, and 1, 2, 3, 4, 5, 6, 7, 8, 10, 12, 24, 48, 72, 96, 120 and 144 h after administration. Approximately 4 mL of venous blood was obtained from each collection and placed in a vacuum collection vessel containing K2EDTA anticoagulant. The blood was centrifuged and packed according to the instruction provided by the Biological Sample Detection and Analysis Unit. Briefly, all samples were centrifuged at 4°C, 1,500 g for 10 min within 0.5 h after blood collection. After centrifugation, the plasma was aliquoted into two cryogenic storage tubes. The first tube (Tube A) contained at least 0.8 mL of plasma for analytical testing, and the remaining plasma is allocated into the backup tube (Tube B). The plasma samples were stored at −80°C within 1 h after aliquoting for further analysis.
The concentration of HEC113995PA·H2O in human plasma samples (K2EDTA) was quantitatively analyzed using the LC-MS/MS method. Plasma samples (50 μL) were processed using protein precipitation with 5 μL deuterated internal standard (HEC124659) and 100 μL acetonitrile. The Shimadzu LCMS-8060 system coupled with a GL Sciences Inc. InertSustain AQ-C18 HP column (50 × 2.1 mm, 3 μm) achieved chromatographic separation through gradient elution using 0.04% TFA aqueous solution (pH 2.1) and acetonitrile at 0.4 mL/min. ESI-positive mode detection employed optimized parameters: 300°C interface temperature, 250°C DL temperature, 3 L/min nebulizer gas, and 400°C heating block temperature.
Using WinNonlin 7.0 for non-compartmental analysis (NCA), pharmacokinetic (PK) parameters were meticulously calculated based on the actual sampling times for plasma, urine, and fecal samples from each subject post-administration. These parameters encompassed a comprehensive range, including the area under the concentration–time curve (AUC), AUC from time zero (pre-dose) to the time of the last measurable concentration (AUC0-t), and AUC from time zero (pre-dose) to infinity (AUC0-∞). Additionally, maximum observed plasma concentration (Cmax), time to achieve maximum plasma concentration (Tmax), terminal elimination half-life (t1/2), elimination rate constant (Ke), apparent volume of distribution (Vd/F), clearance rate (CL/F), and mean residence time (MRT) were also determined. The AUC0-t and AUC0-∞ values were computed using the linear trapezoidal rule method. Tmax and Cmax were ascertained based on the actual observed data. […]

[2] = both sexes, human, plasma, single oral 20 mg, fasted, N = 18, mean (SD)
[3] = both sexes, human, plasma, single oral 20 mg, fed with high-fat, high-calorie meal, N = 18, mean (SD)
[4] = both sexes, human, plasma, single oral 20 mg, fed with standard meal, N = 18, mean (SD)
[5] = single 20 mg tablet, fed vs fasted

With Cc1nc(-c2cnc(N3CCN(CCCc4c[nH]c5ccc(C#N)cc45)CC3)nc2)sc1C(N)=O [HEC113995PA·H2O] the duration of immobility (rats) was “significantly reduce”, the Cmax [1, 2] was 63 ng/mL and the MRT [1, 2] was 38.3 h. The half-life [1, 2] was 29 h, the Vd/F [1, 2] was 447 L and the Tmax ([1]; both sexes, human, plasma, single oral 20 mg, fasted) was 4 h. It also gave a Cmax [1, 3] of 117 ng/mL, an MRT [1, 3] of 35.8 h and a half-life [1, 3] of 30.5 h. For the same compound, the Vd/F [1, 3] was 297 L, the Tmax ([1]; both sexes, human, plasma, single oral 20 mg, fed with high-fat, high-calorie meal) was 5 h and the Cmax [1, 4] was 106 ng/mL. The MRT [1, 4] was 35.4 h, the half-life [1, 4] was 29.5 h and the Vd/F [1, 4] was 298 L. It also gave a Tmax ([1]; both sexes, human, plasma, single oral 20 mg, fed with standard meal) of 5 h, an AUC(0-inf) [1, 2] of 1960 ng·h/mL and an AUC(0-t) [1, 2] of 1860 ng·h/mL. The “food effect, increases in exposure parameters” value ([1]; discussion summary) was 52%–93, the “food impact on Tmax and t1/2” value ([1]; single 20 mg tablet) was “no significant impacts” and the “increase of AUC0-∞ by food intake” value [1, 5] was 52.15∼58.20%. The “increase of Cmax by food intake” value [1, 5] was 77.09∼93.45%, the “increase of AUC0-∞, high-fat meal vs standard meal” value ([1]; single 20 mg tablet, P > 0.05) was 3.97% and the “increase of Cmax, high-fat meal vs standard meal” value ([1]; single 20 mg tablet, P > 0.05) was 9.24%. For the same compound, the CL/F ([1]; single oral 20 mg, fasted, N = 18, mean (SD)) was 10.8 (2.5) L/h, the CL/F ([1]; single oral 20 mg, fed with high-fat, high-calorie meal, N = 18, mean (SD)) was 6.8 (1.5) L/h and the CL/F ([1]; single oral 20 mg, fed with standard meal, N = 18, mean (SD)) was 7.1 (1.6) L/h.
